Data: the NIST ThermoML archive (doi:10.1016/j.jct.2005.01.002)

Assay: xn = mol fraction of the nth substance listed
Conditions: 101 kPa, Liquid

CCCCCOCCCCC [dipentyl ether] + CN(C)C=O
mass density [kg/m3]
Conditions | 298.15 K | 313.15 K | 328.15 K | 343.15 K | 358.15 K
x2 = 0.0416 | 781.66 | 771.34 | 759.02 | 746.76 | 734.14
x2 = 0.1163 | 787.12 | 776.77 | 764.39 | 752.03 | 739.41
x2 = 0.1609 | 790.65 | 780.27 | 767.84 | 755.43 | 742.78
x2 = 0.217 | 795.39 | 784.95 | 772.41 | 759.94 | 747.25
x2 = 0.2456 | 797.91 | 787.44 | 774.88 | 762.38 | 749.67
x2 = 0.3011 | 803.14 | 792.61 | 779.97 | 767.39 | 754.63
x2 = 0.3542 | 808.53 | 797.94 | 785.21 | 772.57 | 759.74
x2 = 0.4097 | 814.65 | 803.99 | 791.14 | 778.42 | 765.54
x2 = 0.457 | 820.29 | 809.57 | 796.61 | 783.81 | 770.89
x2 = 0.5002 | 825.83 | 815.04 | 801.98 | 789.12 | 776.12
x2 = 0.5187 | 828.35 | 817.52 | 804.42 | 791.51 | 778.49
x2 = 0.5486 | 832.57 | 821.67 | 808.5 | 795.54 | 782.47
x2 = 0.6123 | 842.35 | 831.31 | 817.97 | 804.87 | 791.69
x2 = 0.6525 | 849.15 | 837.99 | 824.54 | 811.37 | 798.06
x2 = 0.7141 | 860.63 | 849.31 | 835.68 | 822.37 | 808.9
x2 = 0.7678 | 872.03 | 860.55 | 846.65 | 833.17 | 819.65
x2 = 0.8272 | 886.29 | 874.58 | 860.43 | 846.76 | 833.11
x2 = 0.8585 | 894.75 | 882.91 | 868.61 | 854.86 | 840.93
x2 = 0.9152 | 911.86 | 899.77 | 885.03 | 871.15 | 857.02
x2 = 0.9534 | 924.96 | 912.63 | 897.96 | 883.55 | 869.17

CCCOCCC [dipropyl ether] + CN(C)C=O
mass density [kg/m3]
Conditions | 298.15 K | 313.15 K | 328.15 K | 343.15 K | 358.15 K
x2 = 0.0499 | 749.01 | 735.06 | 720.89 | 706.81 | 692.16
x2 = 0.1072 | 756.74 | 742.84 | 728.72 | 714.64 | 699.96
x2 = 0.1515 | 763.14 | 749.17 | 735.12 | 720.81 | 706.1
x2 = 0.2129 | 772.12 | 758.15 | 743.94 | 729.67 | 714.89
x2 = 0.2528 | 778.22 | 764.23 | 749.93 | 735.72 | 720.91
x2 = 0.3142 | 787.82 | 773.92 | 759.52 | 745.25 | 730.4
x2 = 0.3508 | 793.89 | 780 | 765.58 | 751.24 | 736.39
x2 = 0.3895 | 800.55 | 786.59 | 772.07 | 757.74 | 742.88
x2 = 0.4353 | 808.57 | 794.67 | 780.13 | 765.72 | 750.85
x2 = 0.4788 | 816.49 | 802.63 | 788.03 | 773.58 | 758.7
x2 = 0.5053 | 821.46 | 807.64 | 793.01 | 778.54 | 763.66
x2 = 0.5243 | 825.12 | 811.32 | 796.66 | 782.18 | 767.29
x2 = 0.5454 | 829.23 | 815.46 | 800.8 | 786.3 | 771.4
x2 = 0.6019 | 840.66 | 826.99 | 812.28 | 797.75 | 782.85
x2 = 0.6475 | 850.32 | 836.74 | 821.98 | 807.43 | 792.53
x2 = 0.7054 | 863.22 | 849.75 | 834.83 | 820.5 | 805.64
x2 = 0.7502 | 873.74 | 860.32 | 845.39 | 830.97 | 816.13
x2 = 0.79 | 883.5 | 870.11 | 854.95 | 840.56 | 825.74
x2 = 0.8514 | 899.37 | 886.42 | 871.19 | 856.91 | 842.07
x2 = 0.9075 | 914.86 | 902.16 | 886.61 | 872.33 | 857.58
x2 = 0.9594 | 933.76 | 921.32 | 905.81 | 891.47 | 876.94
